In PubChem BioAssay (NCI):
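A five-concentration, 48-hour dose response in 96-well plates underlies each endpoint, interpolated linearly between surrounding concentrations. At the GI50, growth is halved. Definition used: TGI = concentration required for complete inhibition of growth.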

What follows are molecules tested on CAKI-1 renal (assay: NCI anticancer screen, dose series, 48 h).

Row | SMILES | TGI | GI50
1 | COc1cc(C(C)O)c[n+](CCc2c[nH]c3ccccc23)c1 (stereo not given) | > 100 µM | –
2 | CC1(C)SCc2nc3ncccc3n21 | > 100 µM | –
3 | COc1ccc(C(=O)C(C(=O)CCC(=O)Nc2cccc(Cl)c2)c2ccc(OC)cc2)cc1 (stereo not given) | > 100 µM | –
4 | Cc1cc(C(=O)Nc2ncc(Cc3cccc(C(F)(F)F)c3)s2)c2ccccc2n1 | > 100 µM | 2130 nM
5 | Cc1ccc(C2=C(c3ccccc3)C(Br)(c3ccc(C)cc3)C(c3ccccc3)=C2c2ccc(C)cc2)cc1 | > 100 µM | –
6 | O=C(N/N=C/c1ccc(Cl)cc1)c1ccc(C(F)(F)F)nc1Nc1cccc(C(F)(F)F)c1 | 9.88 µM | 2370 nM
7 | COc1cc2ncnc(Nc3ccc(C)c(O)c3)c2cc1OC | > 17.5 µM | 1990 nM
8 | O=C1CCN2C(=O)CCN12 | > 100 µM | –
9 | Cc1cc(S(=O)(=O)Nc2nnc(-c3ccccc3)c(-c3ccccc3)n2)c(SCC(N)=O)cc1Cl | > 100 µM | > 100000 nM
10 | COc1ccc(/C=C/c2ccnc3ccccc23)c(OC)c1 | > 10 µM | –
11 | CC1CC[C@]2(C(=O)O)CCC3(C)C(=CC(=O)C4[C@@]5(C)CCC(=O)C(C)(C)C5CC[C@]43C)[C@@H]2[C@H]1C (stereo not given in full) | > 100 µM | –
12 | COc1ccccc1CNCCCN1C(=O)c2ccc3c4c(ccc(c24)C1=O)C(=O)N(CCCOCCCCOCCCN)C3=O | 5.13 µM | 1830 nM
13 | CC(C)(C)c1ccc2c(c1)S(=O)(=O)Nc1ccccc1NS(=O)(=O)c1cc(C(C)(C)C)ccc1OCCOCCOCCO2 | > 100 µM | –
14 | COc1cc(/C=C/c2cc(/C=C/c3ccc(O)c(OC)c3)n(C(=O)Nc3ccc(F)c(Cl)c3)n2)ccc1O | 4.92 µM | 350 nM
15 | CC(=O)[O-].CCN(CC)c1ccc(C=NCCN=Cc2ccc(N(CC)CC)cc2[O-])c([O-])c1.[Mn+3] | > 100 µM | > 100000 nM
16 | Clc1ccc(C2=Nn3c(COc4ccccc4Cl)nnc3SC2)c(Cl)c1 | 76.7 µM | 25900 nM
17 | COc1cc2nc3cc([N+](=O)[O-])ccc3c(NCCCNCCO)c2cc1OC | 16.7 µM | 2620 nM
18 | CC1(C)C(=O)N(CCCCCCN2C(=O)C(C)(C)c3ccccc32)c2ccccc21 | > 100 µM | –
19 | CCOC(=O)c1c(C)n(Cc2ccc(Cl)cc2Cl)c2c1c(CN(C)C)c(O)c1[nH]cnc12 | 37.9 µM | 18400 nM
20 | C[C@@]12CC=C3c4nc(Nc5cccc(O)c5)sc4CC[C@]3(C)[C@H]1CC[C@]1(C)C(=O)CC[C@@H]21 | 3.28 µM | 1700 nM
21 | CN1C(=O)c2cccc3cc([N+](=O)[O-])cc(c23)C1=O | > 10 µM | –
22 | Oc1ccccc1C(Sc1nc2ccccc2s1)Sc1nc2ccccc2s1 | > 100 µM | –
23 | Cc1cccc(NC(=O)/C(=N\NC(C)(C)C)C2NC(=S)NC2=O)c1C (stereo not given) | > 100 µM | –
24 | c1ccc(CNn2nnc3ccccc32)cc1 | > 100 µM | –

The molecules below were run on HCT-116 colon (assay: NCI anticancer screen, dose series, 48 h).

Row | SMILES | TGI | GI50
25 | COc1cc(C(C)O)c[n+](CCc2c[nH]c3ccccc23)c1 (stereo not given) | > 100 µM | –
26 | Cc1cn(C2CC(O)C(CO)O2)c(=O)n2nnnc12 (stereo not given) | > 100 µM | –
27 | COc1ccc(C(=O)C(C(=O)CCC(=O)Nc2cccc(Cl)c2)c2ccc(OC)cc2)cc1 (stereo not given) | > 100 µM | –
28 | Cc1cc(C(=O)Nc2ncc(Cc3cccc(C(F)(F)F)c3)s2)c2ccccc2n1 | > 100 µM | 1.29 µM
29 | Cc1ccc(C2=C(c3ccccc3)C(Br)(c3ccc(C)cc3)C(c3ccccc3)=C2c2ccc(C)cc2)cc1 | > 100 µM | –
30 | O=C(N/N=C/c1ccc(Cl)cc1)c1ccc(C(F)(F)F)nc1Nc1cccc(C(F)(F)F)c1 | 10.9 µM | 2.6 µM
31 | COc1cc2ncnc(Nc3ccc(C)c(O)c3)c2cc1OC | > 25 µM | > 25 µM
32 | N#CCN1C(=O)c2cccc3cc([N+](=O)[O-])cc(c23)C1=O | > 100 µM | –
33 | O=C1CCN2C(=O)CCN12 | > 100 µM | –
34 | Cc1cc(S(=O)(=O)Nc2nnc(-c3ccccc3)c(-c3ccccc3)n2)c(SCC(N)=O)cc1Cl | 37.8 µM | 20.7 µM
35 | COc1ccc(/C=C/c2ccnc3ccccc23)c(OC)c1 | > 10 µM | –
36 | CC1CC[C@]2(C(=O)O)CCC3(C)C(=CC(=O)C4[C@@]5(C)CCC(=O)C(C)(C)C5CC[C@]43C)[C@@H]2[C@H]1C (stereo not given in full) | 43 µM | –
37 | CC(=O)CSCc1ccccn1 | > 100 µM | –
38 | CC(C)(C)c1ccc2c(c1)S(=O)(=O)Nc1ccccc1NS(=O)(=O)c1cc(C(C)(C)C)ccc1OCCOCCOCCO2 | > 100 µM | –
39 | CC(=O)[O-].CCN(CC)c1ccc(C=NCCN=Cc2ccc(N(CC)CC)cc2[O-])c([O-])c1.[Mn+3] | 33.3 µM | 18.5 µM
40 | Clc1ccc(C2=Nn3c(COc4ccccc4Cl)nnc3SC2)c(Cl)c1 | 27.9 µM | 14.7 µM
41 | COc1cc2nc3cc([N+](=O)[O-])ccc3c(NCCCNCCO)c2cc1OC | 0.385 µM | 0.115 µM
42 | CC1(C)C(=O)N(CCCCCCN2C(=O)C(C)(C)c3ccccc32)c2ccccc21 | 42.4 µM | –
43 | CCOC(=O)c1c(C)n(Cc2ccc(Cl)cc2Cl)c2c1c(CN(C)C)c(O)c1[nH]cnc12 | 33 µM | 19 µM
44 | CN1C(=O)c2cccc3cc([N+](=O)[O-])cc(c23)C1=O | > 10 µM | –
45 | Oc1ccccc1C(Sc1nc2ccccc2s1)Sc1nc2ccccc2s1 | > 100 µM | –
46 | Cc1cccc(NC(=O)/C(=N\NC(C)(C)C)C2NC(=S)NC2=O)c1C (stereo not given) | > 100 µM | –

What follows are molecules tested on HOP-92 NSCLC (assay: NCI anticancer screen, dose series, 48 h).

Row | SMILES | TGI | GI50
47 | CC1(C)SCc2nc3ncccc3n21 | > 100 µM | –
48 | Cc1cn(C2CC(O)C(CO)O2)c(=O)n2nnnc12 (stereo not given) | > 100 µM | –
49 | COc1ccc(C(=O)C(C(=O)CCC(=O)Nc2cccc(Cl)c2)c2ccc(OC)cc2)cc1 (stereo not given) | > 100 µM | –
50 | Cc1cc(C(=O)Nc2ncc(Cc3cccc(C(F)(F)F)c3)s2)c2ccccc2n1 | > 100 µM | 2560 nM
51 | Cc1ccc(C2=C(c3ccccc3)C(Br)(c3ccc(C)cc3)C(c3ccccc3)=C2c2ccc(C)cc2)cc1 | > 100 µM | –
52 | O=C(N/N=C/c1ccc(Cl)cc1)c1ccc(C(F)(F)F)nc1Nc1cccc(C(F)(F)F)c1 | 2.71 µM | 347 nM
53 | N#CCN1C(=O)c2cccc3cc([N+](=O)[O-])cc(c23)C1=O | > 100 µM | –
54 | O=C1CCN2C(=O)CCN12 | > 100 µM | –
55 | CC1CC[C@]2(C(=O)O)CCC3(C)C(=CC(=O)C4[C@@]5(C)CCC(=O)C(C)(C)C5CC[C@]43C)[C@@H]2[C@H]1C (stereo not given in full) | 73.2 µM | –
56 | CC(=O)CSCc1ccccn1 | > 100 µM | –
57 | COc1ccccc1CNCCCN1C(=O)c2ccc3c4c(ccc(c24)C1=O)C(=O)N(CCCOCCCCOCCCN)C3=O | 4.61 µM | 2100 nM
58 | CC(C)(C)c1ccc2c(c1)S(=O)(=O)Nc1ccccc1NS(=O)(=O)c1cc(C(C)(C)C)ccc1OCCOCCOCCO2 | > 100 µM | –
